Laboratory results as given in patent US6762188B1, “Pharmaceutically active benzoquinazoline compounds” (SmithKline Beecham Corporation, priority 1990, dated 2004).
Where two headings read alike, the source gives them in different places.

What was measured:
[1] = system: MCF-7 human breast adenocarcinoma; assay: Tumor cell culture cytotoxicity (MTT dye reduction), MCF-7; type: cell-based
Protocol: (§1) SW480 and WiDr colon adenocarcinomas, MCF-7 breast adenocarcinoma, A427 lung carcinoma and MOLT-4 T-cell leukemia were used for the primary screening of compounds. […] MCF-7, A427 and SW480 were grown in the above medium further supplemented with sodium pyruvate.
(§2) Cells are seeded into 96-well plates using a Perkin-Elmer Pro/pette. SW480 and A427 were seeded at 8,000 cells per well, MCF-7 at 10,000, Widr at 7500, and MOLT-4 at 12,500 cells per well, all in 150 µl of medium. Prior to the addition of drugs, cultures were incubated for 24 hrs at 37°. Compounds were added at 2×concentration in 150 l of medium and each concentration was assayed in triplicate. If DMSO or ethanol were used to solubilize compounds, appropriate controls were run if the concentration exceeded 0.01%. Cultures were incubated for 72 hours (96 hours for SW480 and MCF-7) in a 37° humidified incubator at 5% CO2. Inhibition of cell growth was measured using the MTT dye reduction assay.
(§3) Cell dilutions for a standard curve were prepared from a 72 hour log-phase culture. Serial dilutions were seeded in triplicate in 96-well plates and incubated at 37 degrees for one hour. MTT (3-(4,5-dimethylthiazol-2-yl)-2,5-diphenyltetrazolium bromide) was dissolved in PBS at 5 mg/ml and sonicated for 30 seconds. Using the Perkin Elmer Pro/pette, 200 μl of medium was removed and 100 μl of MTT added to the wells of the standard curve and test plates. Suspension cultures were spun for 5 min at 1000 rpm before removing medium from the wells. Plates were incubated for 1 hour at 370 on a platform shaker. Following this incubation 100 ml of medium was removed from the wells and 100 μl of DMSO added to each well. The plates were sonicated for approximately 10 seconds to solubilize the precipitated formazan dye. The absorbance of each well was measured using a Titertek Multiscan MC microtiter plate reader at 570 nm with a reference wavelength of 750 nm. Data was collected using a Mariachi Seed-2 and stored and analyzed using an IBM-AT and Lotus 1-2-3 software.

[2] = system: SW480 human colon adenocarcinoma; assay: Tumor cell culture cytotoxicity (MTT dye reduction), SW480; conditions: Homo sapiens
Protocol: as §1, §2, §3

[3] = Cell culture cytotoxicity, D98; type: cell-based; conditions: human, D98 bone marrow cell line, read-out: Tumor Cell Culture Cytotoxicity IC50 Other (D98)
Protocol: as §2, §3

[4] = Cell culture cytotoxicity, L cells; type: cell-based; conditions: mouse, L fibroblast cell line, read-out: Tumor Cell Culture Cytotoxicity IC50 Other (L)
Protocol: as §2, §3

[5] = biological target: T1, Mammalian Thymidylate Synthase (Homo sapiens, UniProt P04818); assay: Thymidylate synthase inhibition, tritium release assay; type: biochemical
T1 construct: made in house; host or cells: Escherichia coli
T1 sequence (P04818 whole entry): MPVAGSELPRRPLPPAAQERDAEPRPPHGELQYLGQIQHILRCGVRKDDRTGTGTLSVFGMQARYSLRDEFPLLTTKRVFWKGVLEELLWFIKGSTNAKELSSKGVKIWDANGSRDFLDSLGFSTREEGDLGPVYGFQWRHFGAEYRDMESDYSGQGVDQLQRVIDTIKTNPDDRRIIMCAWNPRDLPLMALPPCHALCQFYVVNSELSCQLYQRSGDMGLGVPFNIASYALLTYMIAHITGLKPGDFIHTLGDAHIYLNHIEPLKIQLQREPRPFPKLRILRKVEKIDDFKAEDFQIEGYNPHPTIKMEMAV

[6] = MCF7, Table F, fully aromatic p-aminobenzoylglutamates, read-out: Cell Culture Cytotoxicity CCCT MCF-7
[7] = SW480, read-out: Cell Culture Cytotoxicity CCCT SW-480, Table F, fully aromatic p-aminobenzoylglutamates
[8] = SW480, read-out: Tumor Cell Culture Cytotoxicity IC50 SW480, Table E, fully aromatic 3-methyl derivatives
[9] = Table E, fully aromatic 3-methyl derivatives
[10] = SW480, read-out: Tumor Cell Culture Cytotoxicity IC50 SW480, Table D, 5,6-dihydro 3-methyl derivatives
[11] = Table D, 5,6-dihydro 3-methyl derivatives
[12] = SW480, read-out: Tumor Cell Culture Cytotoxicity IC50 SW480, Table B, fully aromatic 3-amino derivatives
[13] = Table B, fully aromatic 3-amino derivatives

## Nc1nc2ccc3ccc(CNc4ccc(C(=O)N[C@@H](CCC(=O)O)C(=O)O)cc4)cc3c2c(=O)[nH]1 [N-(4-(((3-Amino-1,2-dihydro-1-oxobenzo(f)quinazolin-9-yl)methyl)amino)benzoyl)-L-glutamic acid]
[1]; [6]
  IC50: 0.025 µM
[2]; [7]
  IC50: 0.6 µM

## Cc1nc2ccc3ccc(CNc4ccc(C(=O)CCC(=O)O)cc4)cc3c2c(=O)[nH]1 [4-(4-(((1,2-Dihydro-3-methyl-1-oxobenzo[f]quinazolin-9-yl)methyl)amino)phenyl)-4-oxobutyric acid]
[2]; [8]
  IC50: 0.7 µM
[3]; [9]
  IC50 at 72 h: 13.5 µM
[4]; [9]
  IC50 at 72 h: 8.8 µM

## Nc1nc2ccc3cc(S(=O)(=O)Nc4ccc(C(=O)N[C@@H](CCC(=O)O)C(=O)O)cc4)c(Br)cc3c2c(=O)[nH]1 [N-(4-((3-Amino-9-bromo-1,2-dihydro-1-oxobenzo(f)quinazolin-8-yl)sulfonamido)benzoyl)-L-glutamic acid]
[1]; [6]
  IC50: > 50 µM
[2]; [7]
  IC50: > 50 µM
other
  melting point: 238 to 242 °C

## Nc1nc2c(c(=O)[nH]1)-c1cc(S(=O)(=O)Nc3ccc(C(=O)N[C@@H](CCC(=O)O)C(=O)O)cc3)ccc1CC2 [N-(4-((3-Amino-1,2,5,6-tetrahydro-1-oxobenzo(f)quinazolin-9-yl)-sulfonamido)benzoyl)-L-glutamic acid]
[1]; MCF7, Table G, dihydrobenzoquinazoline p-aminobenzoylglutamates, read-out: Cell Culture Cytotoxicity CCCT MCF-7
  IC50: 0.65 µM
[2]; SW480, read-out: Cell Culture Cytotoxicity CCCT SW-480, Table G, dihydrobenzoquinazoline p-aminobenzoylglutamates
  IC50: 7.9 µM

## CC(=O)c1ccc(NS(=O)(=O)c2ccc3c(c2)-c2c(nc(C)[nH]c2=O)CC3)cc1 [4′-Acetyl-1,2,5,6-tetrahydro-3-methyl-1-oxobenzo(f)quinazoline-9-sulfonanilide]
[2]; [10]
  IC50: 8 µM
other
  melting point: > 240 °C

## Cc1nc2ccc3ccc(COc4ccc(C(=O)N[C@@H](CCC(=O)O)C(=O)O)cc4)cc3c2c(=O)[nH]1 [N-(4-((1,2-Dihydro-3-methyl-1-oxobenzo(f)quinazolin-9-yl)methoxy)benzoyl)-L-glutamic acid]
[1]; [6]
  IC50: 7 µM
[2]; [7]
  IC50: 70 µM

## Cc1nc2ccc3ccc(CNc4ccc(C(=O)N[C@@H](CCC(=O)O)C(=O)O)cc4)cc3c2c(=O)[nH]1 [N-(4-(((1,2-Dihydro-3-methyl-1-oxobenzo(f)quinazolin-9-yl)methyl)amino)benzoyl)-L-glutamic acid]
[1]; [6]
  IC50: 0.0075 µM
[2]; [7]
  IC50: 0.35 µM

## Cc1nc2c(c(=O)[nH]1)-c1ccc([N+](=O)[O-])cc1CC2 [Example 8-NO2, 5,6-dihydro-3-methyl-8-nitrobenzo[f]quinazolin-1(2H)-one]
[2]; [10]
  IC50: 100 µM
[3]; [11]
  IC50 at 72 h: 52 µM
[4]; [11]
  IC50 at 72 h: 52 µM

## Nc1nc2ccc3c([N+](=O)[O-])c(F)ccc3c2c(=O)[nH]1 [3-Amino-8-fluoro-7-nitrobenzo(f)quinazolin-1(2H)-one]
[5]
  IC50: 1 to 300 µM
[2]; [12]
  IC50: 30 µM
[3]; [13]
  IC50 at 72 h: 20 µM
[4]; [13]
  IC50 at 72 h: 14 µM

## Cc1nc2ccc3ccc(CNc4ccc5c(c4)CN([C@@H](CCC(=O)O)C(=O)O)C5=O)cc3c2c(=O)[nH]1 [(S)-2-(5-(((1,2-Dihydro-3-methyl-1-oxobenzo(f)quinazolin-9-yl)methyl)amino)-1-oxo-2-isoindolinyl)glutaric acid]
[1]; [6]
  IC50: 0.0002 µM
[2]; [7]
  IC50: 0.0008 µM

## Cc1nc2ccc3ccc(CN(C)c4ccc(C(=O)N[C@@H](CCC(=O)O)C(=O)O)cc4)cc3c2c(=O)[nH]1 [N-(4-((1,2-Dihydro-3-methyl-1-oxobenzo(f)quinazolin-9-yl)methyl)methylamino)benzoyl)-L-glutamic acid]
[1]; [6]
  IC50: 0.018 µM
[2]; [7]
  IC50: 1.5 µM

## Nc1nc2ccc3c(Cl)cccc3c2c(=O)[nH]1 [3-Amino-7-chlorobenzo(f)quinazolin-1(2H)-one]
[5]
  IC50: 1 to 300 µM
[2]; [12]
  IC50: 25 µM
[3]; [13]
  IC50 at 72 h: 60 µM
[4]; [13]
  IC50 at 72 h: 46 µM

## COCc1cc2nc(N)nc(O)c2c2ccccc12 [3-Amino-6-(methoxymethyl)benzo(f)quinazolin-1(2H)-one]
[5]
  IC50: 1 to 300 µM
[2]; [12]
  IC50: 60 µM
[3]; [13]
  IC50 at 72 h: 74 µM
[4]; [13]
  IC50 at 72 h: 56 µM

## Cc1nc2ccc3ccc(CNc4ccc5c(c4)CCC5=O)cc3c2c(=O)[nH]1 [3-Methyl-9-(((1-oxo-5-indanyl)amino)methyl)benzo)[f]quinazolin-1(2H)-one]
[2]; [8]
  IC50: 0.015 µM
[3]; [9]
  IC50 at 72 h: 0.25 µM
[4]; [9]
  IC50 at 72 h: 0.058 µM

## Cc1nc2c(c(=O)[nH]1)-c1cc(S(=O)(=O)Nc3ccc(C(N)=O)cc3)ccc1CC2 [4-((1,2,5,6-Tetrahydro-3-methyl-1-oxobenzo(f)quinazolin-9-yl)sulfonamido)benzamide]
[2]; [10]
  IC50: 80 µM
other
  melting point: 190 °C

## Cc1nc2c(c(=O)[nH]1)-c1cc(S(=O)(=O)Nc3ccc([N+](=O)[O-])cc3)ccc1CC2 [1,2,5,6-Tetrahydro-3-methyl-4′-nitro-1-oxobenzo(f)quinazoline-9-sulfonanilide]
[2]; [10]
  IC50: 30 µM
other
  melting point: > 240 °C

## CCCCCCCCCCCCOC(=O)CCC(=O)c1ccc(NCc2ccc3ccc4nc(C)[nH]c(=O)c4c3c2)cc1 [Dodecyl 4-(4-(((1,2-dihydro-3-methyl-1-oxobenzo[f]quinazolin-9-yl)methyl)amino)phenyl)-4-oxobutyrate]
[2]; [8]
  IC50: 0.4 µM
other
  melting point: 213 to 214 °C

## Cc1nc2c(c(=O)[nH]1)-c1cc(S(N)(=O)=O)ccc1CC2 [1,2,5,6-Tetrahydro-3-methyl-1-oxobenzo(f)quinazoline-9-sulfonamide]
[5]
  IC50: 1 to 300 µM
other
  melting point: > 240 °C

## Cc1cccc2c1ccc1nc(N)[nH]c(=O)c12 [3-Amino-7-methylbenzo(f)quinazolin-1(2H)-one]
[5]
  IC50: 1 to 300 µM
[2]; [12]
  IC50: 35 µM
[3]; [13]
  IC50 at 72 h: 53 µM
[4]; [13]
  IC50 at 72 h: 32 µM

## CC(=O)c1ccc(NCc2ccc3ccc4nc(C)[nH]c(=O)c4c3c2)cc1 [Example 35, 9-((4-Acetylanilino)methyl)-3-methylbenzo[f]quinazolin-1(2H)-one]
other
  melting point: > 235 °C

## Nc1nc2ccc3ccc(CNc4ccc(F)cc4)cc3c2c(=O)[nH]1 [Example 38, 3-Amino-9-((4-fluoroanilino)methyl)benzo[f]quinazolin-1(2H)-one]
other
  melting point: > 230 °C

## Nc1ccc2c(ccc3nc(N)nc(O)c32)c1 [3,8-Diaminobenzo(f)quinazolin-1(2H)-one]
[5]
  IC50: 1 to 300 µM
[2]; [12]
  IC50: 100 µM
[3]; [13]
  IC50 at 72 h: 53 µM
[4]; [13]
  IC50 at 72 h: 40 µM

## CC(=O)c1ccc(NCc2ccc3ccc4nc(N)[nH]c(=O)c4c3c2)cc1 [3-Amino-9-((4-acetylanilino)methyl)benzo(f)quinazolin-1(2H)-one]
[1]; MCF7, Table B, fully aromatic 3-amino derivatives, read-out: Tumor Cell Culture Cytotoxicity IC50 Other (MCF-7)
  IC50: 0.03 µM
[5]
  IC50: < 1 µM
[2]; [12]
  IC50: 0.045 µM

## CCN(CC)S(=O)(=O)c1ccc2ccc3nc(N)[nH]c(=O)c3c2c1 [Example 9-SO2NEt2, 3-Amino-N,N-diethyl-1,2-dihydro-1-oxobenzo[f]quinazoline-9-sulfonamide]
[2]; [12]
  IC50: 15 µM
[2]; SW480, read-out: Tumor Cell Culture Cytotoxicity IC50 SW480, Table C, 5,6-dihydro 3-amino derivatives
  IC50: 30 µM
other
  melting point: > 250 °C

## CCN(CC)S(=O)(=O)c1ccc2c(c1)-c1c(nc(C)[nH]c1=O)CC2 [N,N-Diethyl-1,2,5,6-tetrahydro-3-methyl-1-oxobenzo(f)quinazoline-9-sulfonamide]
[5]
  IC50: 1 to 300 µM
other
  melting point: 249 to 251 °C

## Cc1nc2ccc3ccc(CNc4ccc(C(=O)N[C@@H](CCC(=O)O)C(=O)O)c(F)c4)cc3c2c(=O)[nH]1 [N-(4-(((1,2-Dihydro-3-methyl-1-oxobenzo(f)quinazolin-9-yl)methyl)amino)-2-fluorobenzoyl)-L-glutamic acid]
[1]; [6]
  IC50: 0.0007 µM
[2]; [7]
  IC50: 0.02 µM

## Nc1nc2ccc3c(Br)cccc3c2c(=O)[nH]1 [3-Amino-7-bromobenzo(f)quinazolin-1(2H)-one]
[5]
  IC50: 1 to 300 µM
[2]; [12]
  IC50: 10 µM
[3]; [13]
  IC50 at 72 h: 56 µM
[4]; [13]
  IC50 at 72 h: 28 µM

## Cc1nc2ccc3c(S(=O)(=O)Nc4ccc(C(=O)N[C@@H](CCC(=O)O)C(=O)O)cc4)cccc3c2c(=O)[nH]1 [N-(4-((1,2,-Dihydro-3-methyl-1-oxobenzo(f)quinazolin-7-yl)sulfonamido)benzoyl)-L-glutamic acid]
[1]; [6]
  IC50: 50 µM
